Data as given in patent US20250100987A1 (priority 2021, published 2025).
Like-named read-outs stand apart in the source and are kept apart here.

How the values were obtained:
Assay in all cases: cell-based
[1] = biological target: T1, Kappa opioid receptor (KOR) (Homo sapiens, UniProt P41145)
[2] = biological target: T1, Kappa opioid receptor (KOR); remark: listed apart in the source
[3] = biological target: T1, Kappa opioid receptor (KOR); remark: listed apart in the source

T1 sequence (P41145 whole entry): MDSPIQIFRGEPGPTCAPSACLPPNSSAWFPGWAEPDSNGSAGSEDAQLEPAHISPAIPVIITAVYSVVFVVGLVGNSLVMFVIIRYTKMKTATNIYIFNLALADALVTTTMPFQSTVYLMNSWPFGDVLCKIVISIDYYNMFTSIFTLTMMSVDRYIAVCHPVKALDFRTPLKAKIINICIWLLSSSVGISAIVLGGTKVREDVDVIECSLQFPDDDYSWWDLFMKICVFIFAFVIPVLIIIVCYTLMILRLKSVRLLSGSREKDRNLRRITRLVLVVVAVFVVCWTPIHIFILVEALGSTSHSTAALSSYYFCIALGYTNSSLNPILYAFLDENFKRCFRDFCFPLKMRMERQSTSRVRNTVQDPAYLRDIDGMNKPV

Compound | EC50 ([1]; EC50 Potency Score) [nM] | EC50 ([2]; EC50 Potency Score) [nM] | also measured
O6C-20-nor-SalA Enantiomer B [ALB-230932] |  |  | EC50 ([1]; read-out: EC50 Potency Score): 1 to 100 nM; EC50 ([2]; read-out: EC50 Potency Score): 1 to 100 nM
COC(=O)[C@@H]1C[C@H](OC(C)=O)C(=O)[C@@H]2[C@@]3(C)C[C@@H](c4ccoc4)CC(=O)[C@@H]3CC[C@]21C (racemic) [ALB-230937, O6C-20-nor-SalA racemic mixture] | < 1 | < 1 | EC50 [3]: < 0.1 nM; inhibition at 0.0001 µM ([3]; read-out: inhibition of cAMP production): 100%
COCO[C@H]1C[C@@H](C(=O)OC)[C@]2(C)CC[C@H]3C(=O)C[C@H](c4ccoc4)C[C@@H]3[C@H]2C1=O [ALB-231273] | < 1 | < 1 | EC50 ([1]; estimated EC50): < 0.1 nM; EC50 ([2]; estimated EC50): < 0.1 nM
COC(=O)[C@@H]1C[C@@H](OC(C)=O)C(=O)[C@@H]2[C@@]3(C)C[C@@H](c4ccoc4)CC(=O)[C@@H]3CC[C@]21C [ALB-230935, 2-cpi-O6C-20-nor-SalA] | 1 to 100 | 1 to 100 | 
COC(=O)[C@@H]1C[C@H](O)C(=O)[C@@H]2[C@H]3C[C@@H](c4ccoc4)CC(=O)[C@@H]3CC[C@]21C [ALB-231274, O6C-20-nor-SalB] | 1000 to 10000 | 100 to 1000 | 
O6C-20-nor-SalA Enantiomer A [ALB-230936] |  |  | EC50 ([1]; read-out: EC50 Potency Score): < 1 nM; EC50 ([2]; read-out: EC50 Potency Score): < 1 nM
COC(=O)[C@@H]1C[C@H](OC(=O)/C=C/c2ccccc2)C(=O)[C@@H]2[C@H]3C[C@@H](c4ccoc4)CC(=O)[C@@H]3CC[C@]21C [ALB-231360] | 1000 to 10000 | 1000 to 10000 | EC50 [3]: ~46000 nM
